# PMC12621043, “Un-LOK-ing a New Approach for Conformational Selective Targeting of STK10 (LOK)” (ACS Medicinal Chemistry Letters, 2025)
# Assays:
# Assay in all cases: DSF Tm panel
# Format in all cases: binding
# Settings in all cases: 10 μM compound
# STK17AA = target: T1, STK17AA (Homo sapiens, UniProt Q9UEE5)
# T1 construct: purchased in-house DSF kinase panel (SGC-style construct names; the trailing letter is the construct ID)
# T1 sequence (Q9UEE5 61-321): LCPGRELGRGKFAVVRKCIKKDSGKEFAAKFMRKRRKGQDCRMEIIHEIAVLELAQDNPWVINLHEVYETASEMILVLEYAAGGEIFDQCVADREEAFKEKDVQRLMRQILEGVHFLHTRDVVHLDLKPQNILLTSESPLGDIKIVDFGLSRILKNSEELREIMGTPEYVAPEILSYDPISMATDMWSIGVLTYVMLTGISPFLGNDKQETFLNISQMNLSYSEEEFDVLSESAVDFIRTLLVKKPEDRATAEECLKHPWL
# MAP2K4A = target: T2, MAP2K4A (Homo sapiens, UniProt P45985)
# T2 construct: purchased in-house DSF kinase panel (SGC-style construct names; the trailing letter is the construct ID)
# T2 sequence (P45985 102-367): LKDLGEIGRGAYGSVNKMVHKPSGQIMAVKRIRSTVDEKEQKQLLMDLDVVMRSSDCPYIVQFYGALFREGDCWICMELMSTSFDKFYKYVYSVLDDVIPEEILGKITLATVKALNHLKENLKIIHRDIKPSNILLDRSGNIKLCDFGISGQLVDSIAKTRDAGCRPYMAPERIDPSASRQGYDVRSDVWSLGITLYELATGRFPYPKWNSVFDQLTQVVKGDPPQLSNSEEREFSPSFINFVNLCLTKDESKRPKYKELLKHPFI
# BMX (BMXA) = target: T3, BMX (BMXA) (Homo sapiens, UniProt P51813)
# T3 construct: purchased in-house DSF kinase panel (SGC-style construct names; the trailing letter is the construct ID)
# BMPR2A = target: T4, BMPR2A (Homo sapiens, UniProt Q13873)
# T4 construct: purchased in-house DSF kinase panel (SGC-style construct names; the trailing letter is the construct ID)
# T4 sequence (Q13873 27-1038): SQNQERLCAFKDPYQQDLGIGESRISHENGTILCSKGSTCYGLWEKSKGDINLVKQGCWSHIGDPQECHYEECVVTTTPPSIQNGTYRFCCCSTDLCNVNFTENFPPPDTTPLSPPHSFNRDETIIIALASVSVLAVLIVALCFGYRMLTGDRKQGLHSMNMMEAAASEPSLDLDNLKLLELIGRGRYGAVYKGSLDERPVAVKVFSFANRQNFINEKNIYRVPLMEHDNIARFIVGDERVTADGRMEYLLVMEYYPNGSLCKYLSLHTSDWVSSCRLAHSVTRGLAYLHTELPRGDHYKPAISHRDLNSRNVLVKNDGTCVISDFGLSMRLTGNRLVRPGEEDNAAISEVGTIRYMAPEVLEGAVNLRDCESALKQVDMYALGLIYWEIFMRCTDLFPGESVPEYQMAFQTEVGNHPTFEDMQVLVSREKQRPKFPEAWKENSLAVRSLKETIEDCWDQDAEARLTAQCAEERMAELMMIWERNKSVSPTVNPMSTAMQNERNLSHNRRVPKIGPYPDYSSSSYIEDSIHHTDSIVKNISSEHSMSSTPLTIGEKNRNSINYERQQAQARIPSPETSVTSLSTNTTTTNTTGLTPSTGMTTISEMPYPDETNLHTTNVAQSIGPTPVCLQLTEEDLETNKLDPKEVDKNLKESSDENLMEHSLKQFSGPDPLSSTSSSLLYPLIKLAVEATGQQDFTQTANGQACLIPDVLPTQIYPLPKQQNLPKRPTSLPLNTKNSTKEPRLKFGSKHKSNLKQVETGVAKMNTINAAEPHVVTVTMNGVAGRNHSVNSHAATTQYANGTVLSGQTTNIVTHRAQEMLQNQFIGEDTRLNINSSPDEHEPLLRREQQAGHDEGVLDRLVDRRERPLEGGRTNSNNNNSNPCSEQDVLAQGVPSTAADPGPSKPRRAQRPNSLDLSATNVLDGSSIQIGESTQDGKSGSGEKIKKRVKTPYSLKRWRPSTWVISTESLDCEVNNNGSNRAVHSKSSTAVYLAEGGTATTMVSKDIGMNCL
# EPHA5A = target: T5, EPHA5A (Homo sapiens, UniProt P54756)
# T5 construct: purchased in-house DSF kinase panel (SGC-style construct names; the trailing letter is the construct ID)
# T5 sequence (P54756 653-939): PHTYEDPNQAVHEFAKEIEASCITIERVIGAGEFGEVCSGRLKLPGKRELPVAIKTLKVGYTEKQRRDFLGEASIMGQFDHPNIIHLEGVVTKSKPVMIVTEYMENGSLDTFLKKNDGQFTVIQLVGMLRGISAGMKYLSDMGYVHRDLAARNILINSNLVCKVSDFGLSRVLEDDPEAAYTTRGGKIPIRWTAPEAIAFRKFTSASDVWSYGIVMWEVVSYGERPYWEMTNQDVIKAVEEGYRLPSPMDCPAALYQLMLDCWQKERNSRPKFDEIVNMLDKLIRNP
# K2A2 (CSNK2A2A) = target: T6, K2A2 (CSNK2A2A) (Homo sapiens, UniProt P19784)
# T6 construct: purchased in-house DSF kinase panel (SGC-style construct names; the trailing letter is the construct ID)
# SRCA = target: T7, SRCA (Homo sapiens, UniProt P12931)
# T7 construct: purchased in-house DSF kinase panel (SGC-style construct names; the trailing letter is the construct ID)
# T7 sequence (P12931 254-536): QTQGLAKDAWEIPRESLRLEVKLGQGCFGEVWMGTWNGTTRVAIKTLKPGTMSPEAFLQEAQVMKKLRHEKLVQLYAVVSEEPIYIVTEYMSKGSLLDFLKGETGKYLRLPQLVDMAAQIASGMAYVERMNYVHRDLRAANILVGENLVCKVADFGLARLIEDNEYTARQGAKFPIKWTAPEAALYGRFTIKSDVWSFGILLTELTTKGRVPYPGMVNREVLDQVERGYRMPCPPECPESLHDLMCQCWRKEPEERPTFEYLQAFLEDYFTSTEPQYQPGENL
# T6 sequence (P19784 whole entry): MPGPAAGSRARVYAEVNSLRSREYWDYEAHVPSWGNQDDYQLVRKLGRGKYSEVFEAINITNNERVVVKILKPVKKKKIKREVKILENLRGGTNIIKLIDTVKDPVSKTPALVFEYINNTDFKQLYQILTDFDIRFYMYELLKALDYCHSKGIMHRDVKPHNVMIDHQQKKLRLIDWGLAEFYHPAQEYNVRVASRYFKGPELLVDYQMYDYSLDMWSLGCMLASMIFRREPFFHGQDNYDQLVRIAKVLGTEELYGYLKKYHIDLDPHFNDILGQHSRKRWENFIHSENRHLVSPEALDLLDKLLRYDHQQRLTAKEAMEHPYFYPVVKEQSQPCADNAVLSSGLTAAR
# T3 sequence (P51813 411-675): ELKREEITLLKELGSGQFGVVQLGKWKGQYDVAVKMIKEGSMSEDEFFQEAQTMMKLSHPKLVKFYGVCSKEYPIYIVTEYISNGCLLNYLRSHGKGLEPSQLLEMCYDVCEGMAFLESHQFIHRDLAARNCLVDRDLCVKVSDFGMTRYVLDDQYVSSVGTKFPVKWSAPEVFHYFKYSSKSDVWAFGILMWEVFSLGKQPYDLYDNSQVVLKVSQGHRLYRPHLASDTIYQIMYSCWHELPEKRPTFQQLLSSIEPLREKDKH
Structure (SMILES),ΔTm at 10 µM (STK17AA) [°C],ΔTm at 10 µM (MAP2K4A) [°C],ΔTm at 10 µM (BMX (BMXA)) [°C],ΔTm at 10 µM (BMPR2A) [°C],ΔTm at 10 µM (EPHA5A) [°C],ΔTm at 10 µM (K2A2 (CSNK2A2A)) [°C],ΔTm at 10 µM (SRCA) [°C]
O=C(NCc1ccc(Cl)cc1)Nc1ccc2cc1OCCOCCNc1ccn3ncc-2c3n1 [compound 19],2,5.7,1.4,2.3,0.3,3.6,2.1
O=C(NCc1ccccc1Cl)Nc1ccc2cc1OCCOCCNc1ccn3ncc-2c3n1 [compound 17],2.3,5,1.2,2.6,0.1,4,1.8
COc1ccccc1CNC(=O)Nc1ccc2cc1OCCOCCNc1ccn3ncc-2c3n1 [compound 29],3.1,2.8,-0.1,4,0.6,0.3,2
O=C(NCc1ccccc1)Nc1ccc2cc1OCCOCCNc1ccn3ncc-2c3n1 [compound 16],4.9,5.2,1.7,4.4,0.1,2.3,2.5
C[C@H](NC(=O)Nc1ccc2cc1OCCOCCNc1ccn3ncc-2c3n1)c1ccccc1 [compound 34],6,3.3,0.1,5.1,1,1.2,1.4
O=C(NCc1ccccc1C(F)(F)F)Nc1ccc2cc1OCCOCCNc1ccn3ncc-2c3n1 [compound 27],4,5.1,3,2.8,1.6,0.7,2.5
O=C(NCc1ccc(Cl)cc1Cl)Nc1ccc2cc1OCCOCCNc1ccn3ncc-2c3n1 [compound 20],1.6,3.9,1.6,1.1,0.7,3,1.2
COc1ccc(CNC(=O)Nc2ccc3cc2OCCOCCNc2ccn4ncc-3c4n2)cc1 [compound 31],5.1,4.3,1.4,4.6,1.2,2.5,3.2
CN1CCN(C(=O)Nc2ccc3cc2OCCOCCNc2ccn4ncc-3c4n2)CC1 [compound 35],1.7,1.8,0.3,3.5,-0.5,3.6,0.7
O=C(NCc1cccc(Cl)c1)Nc1ccc2cc1OCCOCCNc1ccn3ncc-2c3n1 [compound 18],5.1,4.1,1.4,2.9,0.4,3.1,2.6
O=C(NCc1ccc(C(F)(F)F)cc1)Nc1ccc2cc1OCCOCCNc1ccn3ncc-2c3n1 [compound 28],2.4,5,2.7,3.2,1.9,0.5,2.3
COc1cccc(CNC(=O)Nc2ccc3cc2OCCOCCNc2ccn4ncc-3c4n2)c1 [compound 30],5.8,3.2,0.4,4.3,0.7,0.8,2.7

# The remaining lines, values ahead:
ΔTm at 10 µM (STK17AA) [°C],ΔTm at 10 µM (MAP2K4A) [°C],ΔTm at 10 µM (BMX (BMXA)) [°C],ΔTm at 10 µM (BMPR2A) [°C],ΔTm at 10 µM (EPHA5A) [°C],ΔTm at 10 µM (K2A2 (CSNK2A2A)) [°C],ΔTm at 10 µM (SRCA) [°C],Structure (SMILES)
7.6,3.6,0.3,3.7,1.4,1.7,2.6,COc1cc(CNC(=O)Nc2ccc3cc2OCCOCCNc2ccn4ncc-3c4n2)ccc1F [compound 33]
2,5.4,1.4,1.8,0.7,4.2,2.6,O=C(NCc1ccc(Cl)cc1F)Nc1ccc2cc1OCCOCCNc1ccn3ncc-2c3n1 [compound 21]
5.2,3.2,0.3,3.4,1.1,0.9,2.2,Cc1ccc(F)cc1CNC(=O)Nc1ccc2cc1OCCOCCNc1ccn3ncc-2c3n1 [compound 26]
5.3,4,1.1,4.4,1.2,2.2,2.6,COc1ccc(CNC(=O)Nc2ccc3cc2OCCOCCNc2ccn4ncc-3c4n2)cc1F [compound 32]
2.3,3.2,1.8,2.3,1.4,0.5,1.7,Cc1cc(Br)ccc1CNC(=O)Nc1ccc2cc1OCCOCCNc1ccn3ncc-2c3n1 [compound 24]
0.7,4.8,1.8,1.5,1,2.8,1.5,Cc1cc(Cl)ccc1CNC(=O)Nc1ccc2cc1OCCOCCNc1ccn3ncc-2c3n1 [compound 23]
